This passage reports IC50 and IC90 results from ChEMBL document CHEMBL1629706 (Antimicrob Agents Chemother, 2010).

Test [1] concerns Plasmodium falciparum. Put plainly: Antimalarial activity against Plasmodium falciparum. The test is classed as functional, organism-based.
Test [2] relates to Plasmodium falciparum. Put plainly: Antimalarial activity against Plasmodium falciparum harboring pfmdr1-86 mutant gene. Type of test: functional, organism-based.
The subject of test [3] is Plasmodium falciparum. The test is described as follows: microbe, parasite or virus in culture. The note with it: isolate AK062.
Description: Antimalarial activity against Plasmodium falciparum isolate AK062
Test [4] deals with Plasmodium falciparum. Put plainly: microbe, parasite or virus in culture. The note with it: isolate AK033 D-0.
Description: Antimalarial activity against Plasmodium falciparum isolate AK033 D-0
The subject of test [5] is Plasmodium falciparum. Put plainly: Antimalarial activity against Plasmodium falciparum harboring pfcrt-76 mutant gene with 2 DNNND repeat. The test is classed as functional, organism-based.
In test [6] the test system is Plasmodium falciparum. Put plainly: microbe, parasite or virus in culture. The note with it: isolate AK150 D-42.
Description: Antimalarial activity against Plasmodium falciparum isolate AK150 D-42
The subject of test [7] is Plasmodium falciparum. Put plainly: Antimalarial activity against Plasmodium falciparum harboring pfmdr1-86 mutant gene with 2 DNNND repeat. The test is classed as functional, organism-based.
The subject of test [8] is Plasmodium falciparum. The test is described as follows: microbe, parasite or virus in culture. The note with it: isolate AK033 D-49.
Description: Antimalarial activity against Plasmodium falciparum isolate AK033 D-49
The test system of test [9] is Plasmodium falciparum. Put plainly: microbe, parasite or virus in culture. The settings on record: isolate AK183.
Description: Antimalarial activity against Plasmodium falciparum isolate AK183
The test system of test [10] is Plasmodium falciparum. Put plainly: microbe, parasite or virus in culture.
Description: Antimalarial activity against Plasmodium falciparum harboring pfmdr1 gene
Test [11] concerns Plasmodium falciparum. Put plainly: microbe, parasite or virus in culture. The settings on record: isolate 8966.
Description: Antimalarial activity against Plasmodium falciparum isolate 8966
The subject of test [12] is Plasmodium falciparum. The test is described as follows: microbe, parasite or virus in culture. The note with it: 3D7.
Description: Antimalarial activity against Plasmodium falciparum 3D7
Test [13] has as its system Plasmodium falciparum. Put plainly: Antimalarial activity against Plasmodium falciparum harboring 1 DNNND repeat. The test is classed as functional, organism-based.
Test [14] has as its system Plasmodium falciparum. Put plainly: microbe, parasite or virus in culture. The note with it: isolate AK249.
Description: Antimalarial activity against Plasmodium falciparum isolate AK249
For test [15], the system named is Plasmodium falciparum. Put plainly: microbe, parasite or virus in culture. The settings on record: isolate 8968.
Description: Antimalarial activity against Plasmodium falciparum isolate 8968
In test [16] the test system is Plasmodium falciparum. Put plainly: microbe, parasite or virus in culture. The note with it: isolate AK158.
Description: Antimalarial activity against Plasmodium falciparum isolate AK158
The test system of test [17] is Plasmodium falciparum. Put plainly: microbe, parasite or virus in culture. The settings on record: isolate 8973.
Description: Antimalarial activity against Plasmodium falciparum isolate 8973
Test [18] has as its system Plasmodium falciparum. Put plainly: microbe, parasite or virus in culture. The note with it: isolate 9067.
Description: Antimalarial activity against Plasmodium falciparum isolate 9067
For test [19], the system named is Plasmodium falciparum. The test is described as follows: microbe, parasite or virus in culture. This is another data set of the same source.
Description: Antimalarial activity against Plasmodium falciparum harboring pfmdr1 gene with 2 DNNND repeat
Test [20] deals with Plasmodium falciparum. The test is described as follows: microbe, parasite or virus in culture. The settings on record: isolate AK222.
Description: Antimalarial activity against Plasmodium falciparum isolate AK222
Test [21] concerns Plasmodium falciparum. The test is described as follows: microbe, parasite or virus in culture. The settings on record: isolate 8885.
Description: Antimalarial activity against Plasmodium falciparum isolate 8885
For test [22], the system named is Plasmodium falciparum. The test is described as follows: microbe, parasite or virus in culture. The settings on record: isolate CDA-1553.
Description: Antimalarial activity against Plasmodium falciparum isolate CDA-1553
The subject of test [23] is Plasmodium falciparum. The test is described as follows: microbe, parasite or virus in culture. This is another data set of the same source.
Description: Antimalarial activity against Plasmodium falciparum harboring 2 DNNND repeat
The subject of test [24] is Plasmodium falciparum. The test is described as follows: microbe, parasite or virus in culture. The note with it: isolate AK167.
Description: Antimalarial activity against Plasmodium falciparum isolate AK167
Test [25] deals with Plasmodium falciparum. Put plainly: microbe, parasite or virus in culture. The note with it: isolate AK152 D-56.
Description: Antimalarial activity against Plasmodium falciparum isolate AK152 D-56
Test [26] has as its system Plasmodium falciparum. The test is described as follows: Antimalarial activity against Plasmodium falciparum harboring pfcrt-76 mutant gene. Type of test: functional, organism-based.
The test system of test [27] is Plasmodium falciparum. The test is described as follows: Antimalarial activity against Plasmodium falciparum harboring 3 DNNND repeat. Type of test: functional, organism-based.
Test [28] concerns Plasmodium falciparum. Put plainly: microbe, parasite or virus in culture. The settings on record: isolate AK022 D-28.
Description: Antimalarial activity against Plasmodium falciparum isolate AK022 D-28
Test [29] has as its system Plasmodium falciparum. The test is described as follows: microbe, parasite or virus in culture. The settings on record: isolate 9070.
Description: Antimalarial activity against Plasmodium falciparum isolate 9070
For test [30], the system named is Plasmodium falciparum. Put plainly: microbe, parasite or virus in culture. The note with it: isolate AK022D-0.
Description: Antimalarial activity against Plasmodium falciparum isolate AK022D-0

What is called IC50 is the concentration needed to halve the response being measured. The IC90 is the concentration needed for an effect of 90%.

With `Clc1ccc2c(N3CCN(CCCN4CCN(c5ccnc6cc(Cl)ccc56)CC4)CC3)ccnc2c1` [PIPERAQUINE], the IC50 with Plasmodium falciparum [1] stood at 56 nM.

With `CCCCN(CCCC)CC(O)c1cc(Cl)cc2c1-c1ccc(Cl)cc1/C2=C/c1ccc(Cl)cc1` (stereo not drawn) [LUMEFANTRINE], in the test with Plasmodium falciparum [1], the half-maximal inhibitory concentration (IC50) worked out at 56 nM.

In the case of `C=C[C@H]1CN2CC[C@H]1C[C@H]2[C@H](O)c1ccnc2ccc(OC)cc12` [QUININE], the half-maximal inhibitory concentration (IC50) in the test with Plasmodium falciparum [2] came out at 208 nM; in the test on Plasmodium falciparum [3], 182 nM; in the test on Plasmodium falciparum [4], 32.8 nM; with Plasmodium falciparum [5], 234 nM; in the test with Plasmodium falciparum [6] it was 91.6 nM; with Plasmodium falciparum [7], 249 nM. Besides, the IC50 in the test on Plasmodium falciparum [8] turned out to be 54.1 nM; in the test with Plasmodium falciparum [9], 73.9 nM; with Plasmodium falciparum [10], 74 nM; with Plasmodium falciparum [11], 55.8 nM; in the test on Plasmodium falciparum [12], 27.1 nM; with Plasmodium falciparum [14], 270 nM. The 50% inhibitory concentration (IC50) was 30.6 nM in the test with Plasmodium falciparum [15]; 234 nM in the test on Plasmodium falciparum [16]; 20 nM in the test on Plasmodium falciparum [17]; 80.1 nM in the test on Plasmodium falciparum [18]; 92 nM in the test with Plasmodium falciparum [19]; 210 nM with Plasmodium falciparum [20]. Further, the IC50 with Plasmodium falciparum [21] is 78.2 nM; in the test on Plasmodium falciparum [22], 333 nM; in the test with Plasmodium falciparum [23], 227 nM; in the test on Plasmodium falciparum [24] it was 227 nM; in the test with Plasmodium falciparum [25] it was 208 nM; in the test with Plasmodium falciparum [26], 164 nM. Further, the IC50 in the test with Plasmodium falciparum [27] worked out at 45 nM; in the test with Plasmodium falciparum [28], 22 nM; in the test on Plasmodium falciparum [29], 41.5 nM; in the test on Plasmodium falciparum [30] it was 42.4 nM. Further, the IC90 is 157 nM in the test with Plasmodium falciparum [13] and 125 nM in the test with Plasmodium falciparum [27].

Regarding `C[C@H]1[C@@H](O)O[C@@H]2O[C@@]3(C)CC[C@H]4[C@H](C)CC[C@@H]1[C@@]24OO3` [ARTENIMOL], the IC50 in the test with Plasmodium falciparum [1] was 1 nM.
